Experimental findings from patent US6653081B2, “Methods for monitoring antiretroviral therapy and guiding therapeutic decision in the treatment of HIV/AIDS” (ViroLogic, Inc., priority 2000, dated 2003) are described below.

Assay [1] relates to RTV-014397. Kind of assay: Phenotypic susceptibility assay, RTV-014397. The format is cell-based, HIV. Particulars: patient 014397; for decrease in susceptibility: 245 and 103. The source says:
(§1) The resistance test vectors containing a functional luciferase gene cassette were constructed and host cells were transfected with the resistance test vector DNA. The resistant test vectors contained patient-derived reverse transcriptase and protease sequences that were either susceptible or resistant to the antiretroviral agents, such as nucleoside reverse transcriptase inhibitors, (NRTIs) non-nucleoside reverse transcriptase inhibitors […] protease inhibitors. The resistance test vector viral particles produced by transfecting the resistance test vector DNA into host cells, either in the presence or absence of PRIs, were used to infect target host cells grown either in the absence of NRTIs or NNRTIs, or in the presence of increasing concentrations of the drug. The amount of luciferase activity produced in infected target host cells in the presence of varying concentrations of drug was compared to the amount of luciferase produced in infected target host cells in the absence of drug. “Drug resistance” was measured as the amount of drug required to inhibit by 50% the luciferase activity detected in the absence of drug (inhibitory concentration 50%, IC50). The IC50 values were determined by plotting percent drug inhibition vs. log10 drug concentration. Stimulation of viral replication was measured as the percent increase in luciferase activity detected when infection occurs in the presence of drug as compared to in the absence of drug.
(§2) Host cells were seeded in 10-cm-diameter dishes and were transfected several days after plating with resistance test vector plasmid DNA and the envelope expression vector. Transfections were performed using a calcium-phosphate precipitation procedure. The cell culture media containing the DNA precipitate was replaced with fresh medium, from one to 24 hours, after transfection. Cell culture media containing resistance test vector viral particles was harvested one to four days after transfection and was passed through a […] filter before being used to infect target host cells, or being stored at −80° C. HIV capsid protein (p24) levels in the harvested cell culture media were determined by an EIA method as described by the manufacturer (SAIC; Frederick, Md.). Before infection, target cells (293 and 293/T) were plated in cell culture media. Control infections were performed using cell culture media from mock transfections (no DNA) or transfections containing the resistance test vector plasmid DNA without the envelope expression plasmid. One to three or more days after infection, the media was removed and cell lysis buffer (Promega) was added to each well. Cell lysates were assayed for luciferase activity (FIG. 3). The inhibitory effect of the drug was determined using the following equation:
(§3) % luciferase inhibition=1−(RLUluc[drug]÷RLUluc)×100
(§4) where RLUluc [drug] is the Relative Light Unit of luciferase activity in infected cells in the presence of drug, and RLUluc is the Relative Light Unit of luciferase activity in infected cells in the absence of drug. IC50values were obtained from the sigmoidal curves that were generated from the data by plotting the percent inhibition of luciferase activity vs. the log10 drug concentration. The percent luciferase stimulation is the negative of the % inhibition calculated using the formula above.
A resistance test vector was constructed as described in Example 1 from a virus sample obtained from patient 014397. The prior and current treatment regimens are unknown. Isolation of viral RNA and RT/PCR was used to generate a patient derived segment (PDS) that comprised viral sequences coding for all of PR and aa 1-313 of RT. The PDS were inserted into an indicator gene viral vector to generate a resistance test vector designated RTV-014397. RTV-014397 was then tested in a phenotypic assay to determine accurately and quantitatively the level of susceptibility to a panel of anti-retroviral drugs. […]

Assay [2] relates to M230L-RTV. Kind of assay: Phenotypic susceptibility assay, M230L-RTV. The format is cell-based, HIV-1. Conditions: site-directed M230L alone.
Source text: as §1, §2, §3, §4
The M230L mutation was introduced into a wild-type (drug sensitive) resistance test vector using the mega-primer method for site-directed mutagenesis (Sakar and Sommar, Ibid.). The resulting resistance test vector containing the M230L mutation (M230L-RTV) was then tested using the phenotypic assay described earlier, and the results were compared to those determined using a genetically defined resistance test vector that was wild type at position 230. We determined the pattern of phenotypic susceptibility to the NNRTIs, delavirdine, nevirapine and efavirenz, in the M230L-RTV. […]

In assay [3] the test system is RTV-K103N. Kind of assay: Phenotypic susceptibility assay, RTV-K103N. The format is cell-based, HIV-1. Conditions: site-directed K103N alone.
Source text: as §1, §2, §3, §4
A resistance test vector containing a single mutation, K103N, (RTV-K103N) was constructed and tested in the phenotypic assay described earlier. The results were compared to those determined using a genetically defined resistance test vector that was wild type at positions 103. We determined the pattern of phenotypic susceptibility to the NNRTIs, delavirdine, nevirapine and efavirenz, in RTV-K103N.

Assay [4] has as its system RTV-010829/245V. Kind of assay: Phenotypic susceptibility assay, RTV-010829/245V. The format is cell-based, HIV. Conditions: RTV-010829 with V245E reverted.
Source text: as §1, §2, §3, §4
A resistance test vector containing all of the mutations present in RTV-010829 except for the V245E mutation (RTV-010829/245V) was constructed and tested using the phenotypic assay described earlier. The results were compared to those determined using the parent RTV-010829. We determined the pattern of phenotypic susceptibility to the NNRTIs, delavirdine, nevirapine and efavirenz, in the reverted vector RTV-010829/245V. […] A resistance test vector containing all of the mutations present in RTV-010829 except for the I270M (RTV-010829/270I) was constructed and tested using the phenotypic assay described earlier. […]

Assay [5] deals with RTV-1033-3/283L/284R/286T. Kind of assay: Phenotypic susceptibility assay, RTV-1033-3/283L/284R/286T. The format is cell-based, HIV. Conditions: RTV-1033-3 with L283I, R284K and T286A reverted.
Source text: as §1, §2, §3, §4
A resistance test vector containing all of the mutations present in RTV-1033-3 except for L283I, R284K and T286A (RTV-1033-3/283L/284R/286T) was constructed and tested using the phenotypic assay described earlier. The results were compared to those determined using the parent RTV-1033-3. We determined the pattern of phenotypic susceptibility to the NNRTIs, delavirdine, nevirapine and efavirenz, in the reverted vector, RTV-1033-3/283L/284R/286T.

Assay [6] deals with RTV-1033-3/184V. In words: Phenotypic susceptibility assay, RTV-1033-3/184V. The format is cell-based, HIV. Conditions: RTV-1033-3 plus M184V.
Source text: as §1, §2, §3, §4
A resistance test vector containing all of the mutations present in RTV-1033-3 in addition to M184V (RTV-1033-3/184V) was constructed and tested using the phenotypic assay described earlier. The results were compared to those determined using the parent RTV-1033-3. We determined the pattern of phenotypic susceptibility to the NNRTIs, delavirdine, nevirapine and efavirenz, in the mutated vector, RTV-1033-3/184V.

Several values for one entry are separate records, joined by “and”; a condition that tells them apart may be missing. Equal entries are not always repeated.

On to `CC(C)Nc1cccnc1N1CCN(C(=O)c2cc3cc(NS(C)(=O)=O)ccc3[nH]2)CC1` [delavirdine], for which the “drug-dependent stimulation of viral replication” value (shortened to “drug-dependent stimulation”) in assay [1] is about 100%; in assay [2], about 50%; in assay [3], “no drug-dependent stimulation”; in assay [4], about 60%; in assay [5], about 40%; in assay [6] it was about 100%. The compound also yielded a decrease in susceptibility in assay [1] of over 250 fold. The “reduction in susceptibility compared to wild type control RTV” value (from here on “reduction in susceptibility”) stood at 58 fold in assay [2] and 5 fold in assay [6]. Also, the “reductions in susceptibility compared to wild type control RTV” value (“reductions in susceptibility” below) in assay [3] is on record as 87 fold; in assay [4], 182 fold; in assay [5], 7 fold.

`O=C1Nc2ccc(Cl)cc2[C@@](C#CC2CC2)(C(F)(F)F)O1` [efavirenz]: the “drug-dependent stimulation” value in assay [1] is about 70%; in assay [2] it was “not”; in assay [3], “no drug-dependent stimulation”; in assay [4] it was about 60%; in assay [5], about 30%; in assay [6], about 80%. Moreover, in assay [1], the decrease in susceptibility is listed as over 450 fold. Also, the results for the “reduction in susceptibility” value in assay [2] and in assay [6] were 23 fold and 28 fold, respectively. The “reductions in susceptibility” value is 29 fold in assay [3], 189 fold in assay [4] and 85 fold in assay [5].

Turning to `Cc1ccnc2c1NC(=O)c1cccnc1N2C1CC1` [nevirapine], the “drug-dependent stimulation” value is listed as about 100% in assay [1]; about 50% in assay [2]; “no drug-dependent stimulation” in assay [3]; about 80% in assay [4]; about 80% in assay [5]; about 100% in assay [6]. Besides, the decrease in susceptibility in assay [1] is over 600 fold. Moreover, the “reduction in susceptibility” value is 39 fold and 40 fold in assay [2]; over 600 fold in assay [6]. The results for the “reductions in susceptibility” value in assay [3], in assay [4] and in assay [5] were 67 fold, 505 fold and over 600 fold, respectively.
